Results: patent publication US20100267561A1, “HERBICIDAL PYRIDAZINONE DERIVATIVES” (priority 2007, published 2010)

Tests used:
Test in all cases: Test B pre-/postemergence plant response
Assay type in all cases: in vivo
[1] = test system: Italian ryegrass (Lolium multiflorum)
Outline: (§1)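 Preemergence and postemergence (plants 2-18 cm, 1- to 4-leaf stage) applications used test chemicals in a non-phytotoxic solvent with surfactant. Plants were held in a greenhouse 13 to 15 days, then rated visually against controls on a 0-100 scale (0 no effect, 100 complete control).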

[2] = test system: Russian thistle (Salsola iberica); details: Preemergence
Outline: as §1

[3] = test system: bermudagrass (Cynodon dactylon)
Outline: as §1

[4] = test system: corn (Zea mays)
Outline: as §1

[5] = test system: downy bromegrass (Bromus tectorum)
Outline: as §1

[6] = test system: eastern black (E.B.) nightshade (Solanum ptycanthum); details: Preemergence
Outline: as §1

[7] = test system: green foxtail (Setaria viridis)
Outline: as §1

[8] = test system: morningglory (Ipomoea coccinea)
Outline: as §1

[9] = test system: pigweed (Amaranthus retroflexus)
Outline: as §1

[10] = test system: soybean (Glycine max)
Outline: as §1

[11] = test system: surinam grass (Brachiaria decumbens)
Outline: as §1

[12] = test system: velvetleaf (Abutilon theophrasti)
Outline: as §1

[13] = test system: woolly cupgrass (Eriochloa villosa)
Outline: as §1

[14] = 8 g ai/ha, postemergence, 0-100 scale
[15] = 16 g ai/ha, postemergence, 0-100 scale
[16] = Postemergence, 31 g ai/ha, scale 0 to 100
[17] = Postemergence, 62 g ai/ha, scale 0 to 100, 0 no effect, 100 complete control
[18] = Preemergence, 8 g ai/ha, scale 0 to 100 (0 no effect, 100 complete control)
[19] = Preemergence, 31 g ai/ha, scale 0 to 100 (0 no effect, 100 complete control)
[20] = Preemergence, 62 g ai/ha, 0 to 100 scale, 0 no effect, 100 complete control
[21] = Preemergence, 16 g ai/ha, scale 0 to 100
[22] = 8 g ai/ha, scale 0 to 100 (0 no effect, 100 complete control)
[23] = 31 g ai/ha, scale 0 to 100 (0 no effect, 100 complete control)
[24] = 62 g ai/ha, 0 to 100 scale, 0 no effect, 100 complete control
[25] = Postemergence, 16 g ai/ha, scale 0 to 100

SMILES: Cc1nn(C)c(=O)c(-n2nc(-c3ccc(Br)cc3)cc2C)c1O [Compound 81]
- Ryegrass, Italian plant response rating [1, 14]: 85
- Ryegrass, Italian plant response rating [1, 15]: 90
- Plant response rating, Ryegrass, Italian [1, 16]: 100
- Plant response rating, Ryegrass, Italian [1, 17]: 100
- Ryegrass, Italian plant response rating [1, 18]: 70
- Plant response rating, Ryegrass, Italian [1, 19]: 100
- Plant response rating, Ryegrass, Italian [1, 20]: 100
- Ryegrass, Italian plant response rating [1, 21]: 100
- Russian Thistle plant response rating [2, 22]: 0
- Plant response rating, Russian Thistle [2, 23]: 0
- Plant response rating, Russian Thistle [2, 24]: 0
- Russian Thistle plant response rating ([2]; 16 g ai/ha, scale 0 to 100): 0
- Bermudagrass plant response rating [3, 14]: 40
- Plant response rating, Bermudagrass [3, 25]: 95
- Plant response rating, Bermudagrass [3, 16]: 100
- Plant response rating, Bermudagrass [3, 17]: 100
- Bermudagrass plant response rating [3, 18]: 0
- Bermudagrass plant response rating ([3]; Preemergence, 16 g ai/ha, scale 0 to 100 (0 no effect, 100 complete control)): 50
- Plant response rating, Bermudagrass [3, 19]: 100
- Plant response rating, Bermudagrass [3, 20]: 100
- Corn plant response rating [4, 14]: 45
- Plant response rating, Corn [4, 25]: 100
- Plant response rating, Corn [4, 16]: 100
- Plant response rating, Corn [4, 17]: 100
- Corn plant response rating [4, 18]: 65
- Plant response rating, Corn [4, 19]: 98
- Plant response rating, Corn [4, 20]: 100
- Corn plant response rating [4, 21]: 70
- Bromegrass, Downy plant response rating [5, 14]: 0
- Plant response rating, Bromegrass, Downy [5, 25]: 45
- Plant response rating, Bromegrass, Downy [5, 16]: 50
- Plant response rating, Bromegrass, Downy [5, 17]: 70
- Bromegrass, Downy plant response rating [5, 18]: 20
- Plant response rating, Bromegrass, Downy [5, 19]: 70
- Plant response rating, Bromegrass, Downy [5, 20]: 85
- Bromegrass, Downy plant response rating [5, 21]: 70
- Nightshade, E. B. plant response rating [6, 22]: 0
- Plant response rating, Nightshade, E. B. [6, 23]: 0
- Plant response rating, Nightshade, E. B. [6, 24]: 50
- Nightshade, E. B. plant response rating ([6]; 16 g ai/ha, scale 0 to 100): 0
- Foxtail, Green plant response rating [7, 14]: 85
- Plant response rating, Foxtail, Green [7, 25]: 90
- Plant response rating, Foxtail, Green [7, 16]: 95
- Plant response rating, Foxtail, Green [7, 17]: 98
- Foxtail, Green plant response rating [7, 18]: 40
- Plant response rating, Foxtail, Green [7, 19]: 100
- Plant response rating, Foxtail, Green [7, 20]: 100
- Foxtail, Green plant response rating [7, 21]: 80
- Morningglory plant response rating [8, 14]: 0
- Morningglory plant response rating [8, 15]: 0
- Plant response rating, Morningglory [8, 16]: 0
- Plant response rating, Morningglory [8, 17]: 0
- Morningglory plant response rating [8, 18]: 0
- Plant response rating, Morningglory [8, 19]: 0
- Plant response rating, Morningglory [8, 20]: 100
- Morningglory plant response rating [8, 21]: 0
- Pigweed plant response rating [9, 14]: 0
- Pigweed plant response rating [9, 15]: 0
- Plant response rating, Pigweed [9, 16]: 0
- Plant response rating, Pigweed [9, 17]: 0
- Pigweed plant response rating [9, 18]: 0
- Plant response rating, Pigweed [9, 19]: 0
- Plant response rating, Pigweed [9, 20]: 55
- Pigweed plant response rating [9, 21]: 0
- Soybean plant response rating [10, 14]: 0
- Soybean plant response rating [10, 15]: 0
- Plant response rating, Soybean [10, 16]: 15
- Plant response rating, Soybean [10, 17]: 20
- Soybean plant response rating [10, 18]: 0
- Plant response rating, Soybean [10, 19]: 0
- Plant response rating, Soybean [10, 20]: 0
- Soybean plant response rating [10, 21]: 0
- Surinam Grass plant response rating [11, 14]: 90
- Surinam Grass plant response rating [11, 15]: 98
- Plant response rating, Surinam Grass [11, 16]: 100
- Plant response rating, Surinam Grass [11, 17]: 100
- Surinam Grass plant response rating [11, 18]: 60
- Plant response rating, Surinam Grass [11, 19]: 100
- Plant response rating, Surinam Grass [11, 20]: 100
- Surinam Grass plant response rating [11, 21]: 85
- Velvetleaf plant response rating [12, 14]: 0
- Velvetleaf plant response rating [12, 15]: 0
- Plant response rating, Velvetleaf [12, 16]: 0
- Plant response rating, Velvetleaf [12, 17]: 0
- Velvetleaf plant response rating [12, 18]: 0
- Plant response rating, Velvetleaf [12, 19]: 0
- Plant response rating, Velvetleaf [12, 20]: 0
- Velvetleaf plant response rating [12, 21]: 0
- Cupgrass, Woolly plant response rating [13, 14]: 75
- Plant response rating, Cupgrass, Woolly [13, 25]: 85
- Plant response rating, Cupgrass, Woolly [13, 16]: 95
- Plant response rating, Cupgrass, Woolly [13, 17]: 98
- Cupgrass, Woolly plant response rating [13, 18]: 20
- Plant response rating, Cupgrass, Woolly [13, 19]: 95
- Plant response rating, Cupgrass, Woolly [13, 20]: 98
- Cupgrass, Woolly plant response rating [13, 21]: 45
